Tested on: not given
Conditions: not given

First: CC(NC(Nc1cc(C(F)(F)F)cc(C(F)(F)F)c1)=C(C#N)S(=O)(=O)c1ccc(Cl)cc1)C(C)(C)C (centres unmarked) [Example 1, 3-[3,5-bis(trifluoromethyl)phenylamino]-2-(4-chlorophenylsulfonyl)-3-(1,2,2-trimethylpropylamino)-2-propenenitrile]
Second: C[C@@H](NC(Nc1cc(C(F)(F)F)cc(C(F)(F)F)c1)=C(C#N)S(=O)(=O)c1ccc(Cl)cc1)C(C)(C)C [Example 19, (R)-3-[3,5-bis(trifluoromethyl)phenylamino]-2-(4-chlorophenylsulfonyl)-3-(1,2,2-trimethylpropylamino)-2-propenenitrile]
The melting point of the first is lower: 155.5 to 158.5 °C for the first, 164 to 165 °C for the second.

First: N#CC(=C(Nc1cc(C(F)(F)F)cc(C(F)(F)F)c1)NC1CCCC1)S(=O)(=O)c1ccc(Cl)cc1 [Example 2, 3-[3,5-Bis(trifluoromethyl)phenylamino]-2-(4-chlorophenylsulfonyl)-3-cyclopentylamino2-propenenitrile]
Second: N#CC(=C(Nc1cc(C(F)(F)F)cc(C(F)(F)F)c1)NC1CCC1)S(=O)(=O)c1ccc(Cl)cc1 [Example 4, 3-[3,5-Bis(trifluoromethyl)phenylamino]-2-(4-chlorophenylsulfonyl)-3-cyclobutylamino-2-propenenitrile]
The melting point of the first is higher: 199 to 200 °C for the first, 190.5 to 193 °C for the second.

`CC(C)NC(Nc1cc(C(F)(F)F)cc(C(F)(F)F)c1)=C(C#N)S(=O)(=O)c1ccc(Cl)cc1` [Example 3, 3-[3,5-Bis(trifluoromethyl)phenylamino]-2-(4-chlorophenylsulfonyl)-3-isopropylamino-2-propenenitrile] and `CCCNC(Nc1cc(C(F)(F)F)cc(C(F)(F)F)c1)=C(C#N)S(=O)(=O)c1ccc(Cl)cc1` [Example 5, 3-[3,5-Bis(trifluoromethyl)phenylamino]-2-(4-chlorophenylsulfonyl)-3-propylamino2-propenenitrile] cannot be ordered by melting point: 197 to 198.5 °C for the first, 196.5 to 198.5 °C for the second.

Compared with `CC(NC(Nc1cc(Cl)cc(Cl)c1)=C(C#N)S(=O)(=O)c1ccc(Cl)cc1)C(C)(C)C` (centres unmarked) [Example 7, 2-(4-Chlorophenylsulfonyl)-3-(3,5-dichlorophenylamino)-3-(1,2,2-trimethylpropylamino)-2-propenenitrile], `CCC(C)NC(Nc1cc(Cl)cc(Cl)c1)=C(C#N)S(=O)(=O)c1ccc(Cl)cc1` (centres unmarked) [Example 31, 3-sec-Butylamino-2-(4-chlorophenylsulfonyl)-3-(3,5-dichlorophenylamino)-2-propenenitrile] is lower in melting point: 163 to 169 °C for the first, 150 to 152 °C for the second.

Compared with `CC(NC(Nc1cc(C(F)(F)F)cc(C(F)(F)F)c1)=C(C#N)S(C)(=O)=O)C(C)(C)C` (centres unmarked) [Example 9, 3-(3,5-Bis(trifluoromethyl)phenylamino)-2-methylsulfonyl-3-(1,2,2-trimethylpropylamino)-propenenitrile], `C[C@@H](NC(Nc1cc(C(F)(F)F)cc(C(F)(F)F)c1)=C(C#N)S(C)(=O)=O)C(C)(C)C` [Example 21, (R)-3-[3,5-bis(trifluoromethyl)phenylamino]-2-methanesulfonyl-3-(1,2,2-trimethylpropylamino)-2-propenenitrile] is lower in melting point: 184.5 to 188.5 °C for the first, 181 to 181.5 °C for the second.

Compared with `COc1cc(NC(NC(C)C(C)(C)C)=C(C#N)S(=O)(=O)c2ccc(Cl)cc2)cc(OC)c1` (centres unmarked) [Example 10, 2-(4-Chlorophenylsulfonyl)-3-(3,5-dimethoxyphenylamino)-3-(1,2,2-trimethylpropylamino)-2-propenenitrile], `CCC(C)(C)NC(Nc1cc(OC)cc(OC)c1)=C(C#N)S(=O)(=O)c1ccc(Cl)cc1` [Example 23, 2-(4-Chlorophenylsulfonyl)-3-(3,5-dimethoxyphenylamino)-3-(1,1-dimethylpropylamino)-2-propenenitrile] is higher in melting point: 177.5 to 179 °C for the first, 189 to 190 °C for the second.

Compared with `CC(NC(=C(C#N)S(=O)(=O)c1ccc(Cl)cc1)N(C)c1cc(C(F)(F)F)cc(C(F)(F)F)c1)C(C)(C)C` (centres unmarked) [Example 11, 3-[N-(3,5-bis(trifluoromethyl)phenyl)-N-methylamino]-2-(4-chlorophenylsulfonyl)-3-(1,2,2-trimethylpropylamino)-2-propenenitrile], `CCC(C)(C)NC(Nc1cc(C(F)(F)F)cc(C(F)(F)F)c1)=C(C#N)S(=O)(=O)c1ccc(Cl)cc1` [Example 17, 3-[3,5-Bis(trifluoromethyl)phenylamino]-2-(4-chlorophenylsulfonyl)-3-(1,1-dimethylpropylamino)-2-propenenitrile] is higher in melting point: 151.5 to 154 °C for the first, 205 to 207 °C for the second.

First: CC(C)NC(Nc1cc(C(F)(F)F)cc(C(F)(F)F)c1)=C(C#N)S(C)(=O)=O [Example 20, 3-(3,5-Bis(trifluoromethyl)phenylamino)-3-isopropylamino-2-methylsulfonyl-propenenitrile]
Second: C[C@H](NC(Nc1cc(C(F)(F)F)cc(C(F)(F)F)c1)=C(C#N)S(C)(=O)=O)C(C)(C)C [Example 22, (S)-3-[3,5-bis(trifluoromethyl)phenylamino]-2-methanesulfonyl-3-(1,2,2-trimethylpropylamino)-2-propenenitrile]
The melting point of the first is higher: 188.5 to 191 °C for the first, 180.5 to 181.5 °C for the second.

First: COc1cc(NC(NC2CCC2)=C(C#N)S(=O)(=O)c2ccc(Cl)cc2)cc(OC)c1 [Example 24, 2-(4-Chlorophenylsulfonyl)-3-(3,5-dimethoxyphenylamino)3cyclobutylamino-2-propenenitrile]
Second: N#CC(=C(Nc1ccc2c(c1)OCO2)NC1CCC1)S(=O)(=O)c1ccc(Cl)cc1 [Example 28, 3-(Benzo[1,3]dioxol-5-ylamino)-3-cyclobutylamino-2-(4-chloro-phenylsulfonyl)-propenenitrile]
The melting point of the first is lower: 163.5 to 164.5 °C for the first, 189.5 °C for the second.

First: CCC(C)(C)NC(Nc1ccc2c(c1)OCO2)=C(C#N)S(=O)(=O)c1ccc(Cl)cc1 [Example 27, 3-(Benzo[1,3]dioxol-5-ylamino)-3-(1,1-dimethyl-propylamino)-2-(4-chloro-phenylsulfonyl)-propenenitrile]
Second: CCC(C)(C)NC(Nc1ccc2c(c1)OCO2)=C(C#N)C(=O)C(C)(C)C [Example 36, 3-(Benzo[1,3]dioxol-5-ylamino)-2-(2,2-dimethyl-propionyl)-3-(1,1-dimethyl-propylamino)-propenenitrile]
The melting point of the first is higher: 169 to 170 °C for the first, 161 to 165 °C for the second.

First: CC(NC(Nc1cc(F)cc(C(F)(F)F)c1)=C(C#N)S(C)(=O)=O)C(C)(C)C (centres unmarked) [Example 33, 3-(3-Fluoro-5trifluoromethyl-phenylamino)-2-methylsulfonyl-3-(1,2,2-trimethylpropylamino)-propenenitrile]
Second: CC(NC(Nc1ccc(Cl)cc1)=C(C#N)S(C)(=O)=O)C(C)(C)C (centres unmarked) [Example 34, 3-(4-Chlorophenylamino)-2-methylsulfonyl-3-(1,2,2-trimethylpropylamino)-acrylonitrile]
The melting point of the first is higher: 183 to 185 °C for the first, 160.5 to 161.5 °C for the second.

`CCC(C)(C)NC(Nc1ccc2ncsc2c1)=C(C#N)S(C)(=O)=O` [Example 35, 3-(Benzothiazol-6-ylamino)-3-(1,1-dimethyl-propylamino)-2-methylsulfonyl-propenenitrile] showed a melting point of 112 to 114 °C.

Biological target: KATP-channels on pancreatic beta-cells (Homo sapiens, UniProt Q09428)
Conditions: by activation of KATP-channels; cited from earlier work

Sequence of KATP-channels on pancreatic beta-cells (Q09428 whole entry): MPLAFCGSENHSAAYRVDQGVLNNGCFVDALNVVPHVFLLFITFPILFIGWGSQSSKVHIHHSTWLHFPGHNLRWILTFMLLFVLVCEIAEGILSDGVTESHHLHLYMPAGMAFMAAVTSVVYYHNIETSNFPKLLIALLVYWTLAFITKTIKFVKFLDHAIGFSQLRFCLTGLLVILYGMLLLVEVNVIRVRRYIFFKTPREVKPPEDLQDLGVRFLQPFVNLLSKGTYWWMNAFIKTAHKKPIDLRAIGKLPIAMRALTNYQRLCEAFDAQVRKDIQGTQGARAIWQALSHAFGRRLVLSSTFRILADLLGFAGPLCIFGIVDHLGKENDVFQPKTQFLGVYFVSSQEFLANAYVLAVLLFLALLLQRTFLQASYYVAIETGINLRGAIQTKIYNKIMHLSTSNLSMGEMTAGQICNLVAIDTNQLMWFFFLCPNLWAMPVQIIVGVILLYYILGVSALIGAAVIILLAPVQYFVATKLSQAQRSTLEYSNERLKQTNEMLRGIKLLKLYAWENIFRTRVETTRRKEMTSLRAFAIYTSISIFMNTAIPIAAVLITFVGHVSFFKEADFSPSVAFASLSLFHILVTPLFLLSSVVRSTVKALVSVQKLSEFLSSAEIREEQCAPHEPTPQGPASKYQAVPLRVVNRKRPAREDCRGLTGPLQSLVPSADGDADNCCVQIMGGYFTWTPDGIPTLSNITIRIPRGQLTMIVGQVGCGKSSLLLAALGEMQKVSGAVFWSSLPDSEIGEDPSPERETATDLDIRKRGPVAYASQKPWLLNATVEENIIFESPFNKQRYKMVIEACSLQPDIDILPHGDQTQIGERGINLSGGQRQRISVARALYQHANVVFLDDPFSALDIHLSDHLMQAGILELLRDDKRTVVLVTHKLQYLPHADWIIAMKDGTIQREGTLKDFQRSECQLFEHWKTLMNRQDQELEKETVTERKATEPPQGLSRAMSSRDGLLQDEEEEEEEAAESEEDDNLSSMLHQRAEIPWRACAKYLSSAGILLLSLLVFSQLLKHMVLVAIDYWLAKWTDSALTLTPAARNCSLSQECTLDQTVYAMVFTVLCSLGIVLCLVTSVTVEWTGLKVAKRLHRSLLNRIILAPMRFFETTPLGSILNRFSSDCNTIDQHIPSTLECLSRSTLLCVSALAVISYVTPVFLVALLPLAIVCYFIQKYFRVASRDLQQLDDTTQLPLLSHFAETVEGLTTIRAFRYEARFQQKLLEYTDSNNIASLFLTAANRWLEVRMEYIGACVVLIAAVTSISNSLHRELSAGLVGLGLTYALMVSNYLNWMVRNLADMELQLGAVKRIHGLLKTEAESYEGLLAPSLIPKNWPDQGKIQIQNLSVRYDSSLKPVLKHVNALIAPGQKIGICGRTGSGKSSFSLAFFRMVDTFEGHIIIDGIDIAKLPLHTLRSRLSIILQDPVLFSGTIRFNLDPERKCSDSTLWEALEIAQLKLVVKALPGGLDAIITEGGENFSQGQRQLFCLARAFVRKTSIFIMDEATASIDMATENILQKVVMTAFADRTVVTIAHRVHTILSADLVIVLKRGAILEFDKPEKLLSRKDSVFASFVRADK
Sequence of KATP-channels on pancreatic beta-cells (Q14654 whole entry partner): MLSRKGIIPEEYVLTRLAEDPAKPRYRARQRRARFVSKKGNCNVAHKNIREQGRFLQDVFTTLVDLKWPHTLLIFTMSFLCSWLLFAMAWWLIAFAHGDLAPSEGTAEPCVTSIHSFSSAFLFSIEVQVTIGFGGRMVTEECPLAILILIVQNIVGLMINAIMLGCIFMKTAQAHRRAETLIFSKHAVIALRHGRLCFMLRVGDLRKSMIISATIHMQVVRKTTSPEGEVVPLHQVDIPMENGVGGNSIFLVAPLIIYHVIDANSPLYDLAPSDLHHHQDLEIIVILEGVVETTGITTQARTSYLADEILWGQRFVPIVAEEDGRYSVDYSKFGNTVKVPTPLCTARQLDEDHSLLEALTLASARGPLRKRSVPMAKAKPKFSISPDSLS

In the case of `CC1=Nc2ccc(Cl)cc2S(=O)(=O)N1` [diazoxide, 7-chloro-3-methyl-2H-1,2,4-benzothiadiazine 1,1-dioxide], the insulin release is listed as “inhibit insulin release”.

Tested on: BB-rats
Conditions: cited from earlier work

In the case of `CC1=Nc2ccc(Cl)cc2S(=O)(=O)N1` [diazoxide, 7-chloro-3-methyl-2H-1,2,4-benzothiadiazine 1,1-dioxide], the onset of diabetes is given as “delay the onset of diabetes”.

Tested on: obese zucker rats
Conditions: cited from earlier work

In the case of `CC1=Nc2ccc(Cl)cc2S(=O)(=O)N1` [diazoxide, 7-chloro-3-methyl-2H-1,2,4-benzothiadiazine 1,1-dioxide], the glucose tolerance is given as “improve glucose tolerance”.

For `CC1=Nc2ccc(Cl)cc2S(=O)(=O)N1` [diazoxide, 7-chloro-3-methyl-2H-1,2,4-benzothiadiazine 1,1-dioxide], the insulin receptor binding is given as “increase insulin receptor binding”.

For `CC1=Nc2ccc(Cl)cc2S(=O)(=O)N1` [diazoxide, 7-chloro-3-methyl-2H-1,2,4-benzothiadiazine 1,1-dioxide], the insulin secretion is given as “decrease insulin secretion”.

For `CC1=Nc2ccc(Cl)cc2S(=O)(=O)N1` [diazoxide, 7-chloro-3-methyl-2H-1,2,4-benzothiadiazine 1,1-dioxide], the weight gain is listed as “decrease weight gain”.

From patent US6365609B1, “Substituted 3,3-diamino-2-propenenitriles, their preparation and use” (Novo Nordisk A/S, priority 1998, dated 2002)
